According to US10881108B2, “Method of protecting field corn from damage by a plant pathogen” (SUMITOMO CHEMICAL COMPANY, LIMITED, priority 2019, dated 2021):

Key:
Type in all cases: in vivo
Cercospora zeae-maydis [1] = assay: Seed coating, then grey leaf spot inoculation; fresh weight of aerial part; conditions: seed coating 0.2 mg per seed, 20 g per hectare, 14 days from inoculation
Description: Seeds of field corn are coated with a mefentrifluconazole aqueous suspension concentrate so that the amount of mefentrifluconazole to be applied to each seed may be 0.2 mg. Then, the field corn seeds are sown to a pot filled with a soil at a sowing rate of 100,000 seeds per hectare. That is, the application rate of mefentrifluconazole is 20 g per hectare. Then, the field corn is incubated in a greenhouse for 10 days, followed by inoculating a pathogen of grey leaf spot (Cercospora zeae-maydis) to the foliage of field corn. The field corn is incubated in a greenhouse for 14 days from the inoculation, and then the fresh weight of the aerial part of the field corn is measured. It is confirmed that the fresh weight is equivalent to that of the control where field corn is not treated with mefentrifluconazole and the pathogen is not inoculated (no-treatment-no-inoculation control) and is bigger than that of the control where field corn is not treated with mefentrifluconazole and the pathogen is inoculated (no-treatment-inoculation control). The same procedure of the example 2 is repeated except for replacing field corn with popcorn, sweet corn, or waxy corn. It is confirmed that the fresh weight of popcorn, sweet corn, or waxy corn is smaller than that of the corresponding no-treatment-no-inoculation control and is equivalent to that of the corresponding no-treatment-inoculation control.

Cercospora zeae-maydis [2] = assay: Seed dipping, then grey leaf spot inoculation; plant length of aerial part; conditions: seed dipping 0.2 mg per seed, 200 g per hectare; for Plant length in treatment plot (A) / Treatment/control ratio (100 × A/B): 7 days from inoculation
Description: Seeds of three varieties of field corn were separately dipped in a mefentrifluconazole dilution liquid (prepared by diluting an aqueous suspension concentrate of mefentrifluconazole with water) so that the amount of mefentrifluconazole to be applied to each seed might be 0.2 mg. Then, the field corn seeds were sown to a pot filled with a soil at a sowing rate of 1,000,000 seeds per hectare. That is, the application rate of mefentrifluconazole was 200 g per hectare. Each field corn was incubated in a greenhouse for 12 days from the sowing, and then a pathogen of grey leaf spot (Cercospora zeae-maydis) was inoculated to the foliage of each field corn. Each field corn was incubated in a greenhouse for 7 days from the inoculation, and then plant length of the aerial part of each field corn was measured. The plant length is referred to as ‘the plant length in treatment plot’. As a control experiment, the same procedure was repeated except that dipping treatment with mefentrifluconazole dilution liquid and the inoculation of the pathogen were not conducted. The plant length obtained in the control experiment is referred to as ‘the plant length in control plot’. The same procedure of the example 4 was repeated except for replacing three varieties of field corn with a variety of popcorn, and two varieties of waxy corn.

Cercospora zeae-maydis [3] = assay: Foliar spray on potted corn, then grey leaf spot inoculation; fresh weight of aerial part; conditions: foliar spray 500 g per hectare, 14 days from inoculation
Description: Field corn is sown to a pot filled with a soil. It is incubated for 7 days in a greenhouse. Mefentrifluconazole spray liquid (prepared by diluting an aqueous suspension concentrate of mefentrifluconazole with water) is uniformly sprayed onto the foliage of field corn at the amount of 200 L per hectare so that the application rate of mefentrifluconazole may be 500 g per hectare. On the next day of the spraying, a pathogen of grey leaf spot (Cercospora zeae-maydis) is inoculated to the foliage of field corn. The field corn is incubated in a greenhouse for 14 days from the inoculation, and then fresh weight of the aerial part of the field corn is measured. It is confirmed that the fresh weight is equivalent to that of the control where field corn is not treated with mefentrifluconazole and the pathogen is not inoculated (no-treatment-no-inoculation control) and is bigger than that of the control where field corn is not treated with mefentrifluconazole and the pathogen is inoculated (no-treatment-inoculation control). The same procedure of the example 1 is repeated except for replacing field corn with popcorn, sweet corn, or waxy corn. It is confirmed that the fresh weight of popcorn, sweet corn, or waxy corn is smaller than that of the corresponding no-treatment-no-inoculation control and is equivalent to that of the corresponding no-treatment-inoculation control.

Cercospora zeae-maydis [4] = assay: Dripping onto first leaf, then grey leaf spot inoculation; plant length of aerial part; conditions: 100 g per hectare; for Plant length in treatment plot (A) / Treatment/control ratio (100 × A/B): dripped onto first leaf 0.1 mg per plant, 7 days from inoculation; for protection from the damage by the pathogen: dripped onto first leaf
Description: Four varieties of field corn were sown to a pot filled with a soil at a sowing rate of 1,000,000 seeds per hectare. Then each field corn was incubated for 7 days in a greenhouse. A mefentrifluconazole dilution liquid (prepared by diluting an aqueous suspension concentrate of mefentrifluconazole with water) is dripped onto the first leaf of field corn plants so that the amount of mefentrifluconazole to be applied to each plant might be 0.1 mg. That is, the application rate of mefentrifluconazole was 100 g per hectare. Five days after the application, a pathogen of grey leaf spot (Cercospora zeae-maydis) was inoculated to the foliage of each field corn. Each field corn was incubated in a greenhouse for 7 days from the inoculation, and then plant length of the aerial part of each field corn was measured. The plant length is referred to as ‘the plant length in treatment plot’. As a control experiment, the same procedure was repeated except that dripping treatment with mefentrifluconazole dilution liquid and the inoculation of the pathogen were not conducted. The plant length obtained in the control experiment is referred to as ‘the plant length in control plot’. The same procedure of the example 5 was repeated except for replacing four varieties of field corn with two varieties of popcorn, a variety of sweet corn, and two varieties of waxy corn.

Cercospora zeae-maydis [5] = assay: Dripping onto primary leaf, then grey leaf spot inoculation; fresh weight of aerial part; conditions: dripped onto primary leaf 0.2 mg per plant, 200 g per hectare, 14 days from inoculation
Description: Field corn is sown to a pot filled with a soil at a sowing rate of 1,000,000 seeds per hectare. The field corn is incubated for 10 days in a greenhouse, and then mefentrifluconazole dilution liquid (prepared by diluting an aqueous suspension concentrate of mefentrifluconazole with water) is dripped onto the primary leaf of field corn so that the amount of mefentrifluconazole to be applied to each plant may be 0.2 mg. That is, the application rate of mefentrifluconazole is 200 g per hectare. On the next day of the application, a pathogen of grey leaf spot (Cercospora zeae-maydis) is inoculated to the foliage of field corn. The field corn is incubated in a greenhouse for 14 days from the inoculation, and then fresh weight of the aerial part of the field corn is measured. It is confirmed that the fresh weight is equivalent to that of the control where field corn is not treated with mefentrifluconazole and the pathogen is not inoculated (no-treatment-no-inoculation control) and is bigger than that of the control where field corn is not treated with mefentrifluconazole and the pathogen is inoculated (no-treatment-inoculation control). The same procedure of the example 3 is repeated except for replacing field corn with popcorn, sweet corn, or waxy corn. It is confirmed that the fresh weight of popcorn, sweet corn, or waxy corn is smaller than that of the corresponding no-treatment-no-inoculation control and is equivalent to that of the corresponding no-treatment-inoculation control.

[6] = popcorn, sweet corn, or waxy corn

CC(O)(Cn1cncn1)c1ccc(Oc2ccc(Cl)cc2)cc1C(F)(F)F (stereo not drawn) [mefentrifluconazole]
fresh weight of the aerial part compared with no-treatment-inoculation control (Cercospora zeae-maydis [1]; field corn): bigger | fresh weight of the aerial part compared with no-treatment-no-inoculation control (Cercospora zeae-maydis [1]; field corn): equivalent | fresh weight compared with no-treatment-inoculation control (Cercospora zeae-maydis [1]; [6]): equivalent | fresh weight compared with no-treatment-no-inoculation control (Cercospora zeae-maydis [1]; [6]): smaller | Plant length in treatment plot (A) (Cercospora zeae-maydis [2]; Field corn/DKC5632): 58 cm | Treatment/control ratio (100 × A/B) (Cercospora zeae-maydis [2]; Field corn/DKC5632): 95 | Plant length in treatment plot (A) (Cercospora zeae-maydis [2]; Field corn/Koshu): 63 cm | Treatment/control ratio (100 × A/B) (Cercospora zeae-maydis [2]; Field corn/Koshu): 105 | Plant length in treatment plot (A) (Cercospora zeae-maydis [2]; Field corn/MAS40F): 61 cm | Treatment/control ratio (100 × A/B) (Cercospora zeae-maydis [2]; Field corn/MAS40F): 97 | Plant length in treatment plot (A) (Cercospora zeae-maydis [2]; Popcorn/Yuki-pop): 45 cm | Treatment/control ratio (100 × A/B) (Cercospora zeae-maydis [2]; Popcorn/Yuki-pop): 80 | Plant length in treatment plot (A) (Cercospora zeae-maydis [2]; Waxy corn/Ki-mochi): 30 cm | Treatment/control ratio (100 × A/B) (Cercospora zeae-maydis [2]; Waxy corn/Ki-mochi): 70 | Plant length in treatment plot (A) (Cercospora zeae-maydis [2]; Waxy corn/Shiro-mochi): 51 cm | Treatment/control ratio (100 × A/B) (Cercospora zeae-maydis [2]; Waxy corn/Shiro-mochi): 86 | protection of field corns compared with popcorn or waxy corns (Cercospora zeae-maydis [2]; Tables 1 and 2): protected much more effectively | fresh weight of the aerial part compared with no-treatment-inoculation control (Cercospora zeae-maydis [3]; field corn): bigger | fresh weight of the aerial part compared with no-treatment-no-inoculation control (Cercospora zeae-maydis [3]; field corn): equivalent | fresh weight compared with no-treatment-inoculation control (Cercospora zeae-maydis [3]; [6]): equivalent | fresh weight compared with no-treatment-no-inoculation control (Cercospora zeae-maydis [3]; [6]): smaller | Plant length in treatment plot (A) (Cercospora zeae-maydis [4]; Field corn/DKC5632): 63 cm | Treatment/control ratio (100 × A/B) (Cercospora zeae-maydis [4]; Field corn/DKC5632): 103 | Plant length in treatment plot (A) (Cercospora zeae-maydis [4]; Field corn/Koshu): 65 cm | Treatment/control ratio (100 × A/B) (Cercospora zeae-maydis [4]; Field corn/Koshu): 108 | Plant length in treatment plot (A) (Cercospora zeae-maydis [4]; Field corn/MAS40F): 64 cm | Treatment/control ratio (100 × A/B) (Cercospora zeae-maydis [4]; Field corn/MAS40F): 102 | Plant length in treatment plot (A) (Cercospora zeae-maydis [4]; Field corn/Pioneer 2088): 62 cm | Treatment/control ratio (100 × A/B) (Cercospora zeae-maydis [4]; Field corn/Pioneer 2088): 103 | Plant length in treatment plot (A) (Cercospora zeae-maydis [4]; Popcorn/Maru-pop): 45 cm | Treatment/control ratio (100 × A/B) (Cercospora zeae-maydis [4]; Popcorn/Maru-pop): 80 | Plant length in treatment plot (A) (Cercospora zeae-maydis [4]; Popcorn/Yuki-pop): 53 cm | Treatment/control ratio (100 × A/B) (Cercospora zeae-maydis [4]; Popcorn/Yuki-pop): 84 | Plant length in treatment plot (A) (Cercospora zeae-maydis [4]; Sweet corn/Rancher 82): 31 cm | Treatment/control ratio (100 × A/B) (Cercospora zeae-maydis [4]; Sweet corn/Rancher 82): 91 | Plant length in treatment plot (A) (Cercospora zeae-maydis [4]; Waxy corn/Ki-mochi): 29 cm | Treatment/control ratio (100 × A/B) (Cercospora zeae-maydis [4]; Waxy corn/Ki-mochi): 67 | Plant length in treatment plot (A) (Cercospora zeae-maydis [4]; Waxy corn/Shiro-mochi): 43 cm | Treatment/control ratio (100 × A/B) (Cercospora zeae-maydis [4]; Waxy corn/Shiro-mochi): 73 | protection from the damage by the pathogen (Cercospora zeae-maydis [4]; each field corn (four varieties), Table 3): successfully protected | protection from the damage by the pathogen (Cercospora zeae-maydis [4]; popcorns, sweet corn and waxy corns, Table 4): not successfully protected | fresh weight of the aerial part compared with no-treatment-inoculation control (Cercospora zeae-maydis [5]; field corn): bigger | fresh weight of the aerial part compared with no-treatment-no-inoculation control (Cercospora zeae-maydis [5]; field corn): equivalent | fresh weight compared with no-treatment-inoculation control (Cercospora zeae-maydis [5]; [6]): equivalent | fresh weight compared with no-treatment-no-inoculation control (Cercospora zeae-maydis [5]; [6]): smaller
